Laboratory results reported in US12497394B2, “Fused-cyclic pyrazolone formamide compound and preparation method therefor, pharmaceutical composition and use thereof” (SHANGHAI INSTITUTE OF MATERIA MEDICA, CHINESE ACADEMY OF …, priority 2018, dated 2025).
Where “and” joins values, the source holds several entries; their conditions need not be identical. Equal entries are not always repeated. Where two headings read alike, the source gives them in different places.

How the values were obtained:
[1] = target: T1, receptor tyrosine kinase AXL (Homo sapiens, UniProt P30530); assay: Enzyme activity of receptor tyrosine kinase AXL (ELISA); format: biochemical
T1 construct: 50 μL of AXL kinase domain recombinant protein diluted in reaction buffer was added to start the reaction; made in house; host or cells: insect cells (baculovirus expression system)
T1 sequence (P30530 536-807 limits assumed): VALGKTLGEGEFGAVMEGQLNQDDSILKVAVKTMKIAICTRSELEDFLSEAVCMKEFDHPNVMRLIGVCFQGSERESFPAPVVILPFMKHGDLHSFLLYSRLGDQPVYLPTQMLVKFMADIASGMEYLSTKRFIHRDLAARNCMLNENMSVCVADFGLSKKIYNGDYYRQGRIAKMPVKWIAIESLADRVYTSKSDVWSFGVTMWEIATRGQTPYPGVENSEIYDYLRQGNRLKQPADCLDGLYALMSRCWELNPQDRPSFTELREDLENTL
Procedure: Detection method: Enzyme-linked immunosorbent assay (ELISA)
Tested receptor tyrosine kinase: AXL
The full-wavelength microplate reader for experiment reading was a product of Molecular Device, model: SpectraMax 190; the experiment water was distilled water produced by Sinopharm Group.
Compound preparation: The compounds were centrifuged at 12,000 g for 5 min, and DMSO was added to prepare a 10^−2M stock solution, vortexed evenly and sonicated for 10 min for use, and stored at −40° C. During the test, the compound was diluted from the stock solution to 100 times the tested concentration with DMSO (the DMSO concentration in the system was 1%).
1. […] Discard the liquid from the well. The plate was washed and washed three times with T-PBS (0.1% Tween-20 in potassium-free PBS, 200 μL/well) for 5 minutes each time.
2. 49 μL of ATP solution diluted with reaction buffer (50 mM HEPES pH 7.4, 50 mM MgCl2, 0.5 mM MnCl2, 0.2 mM Na3VO4, 1 mM DTT) was added to each well, and […] of the tested compound was added to each well, and then 50 μL of AXL kinase domain recombinant protein diluted in reaction buffer was added to start the reaction. Two control wells without ATP were added in each experiment. (100 rpm) Reacted in 37° C. shaker for 1 hour. Discard the liquid from the well, and the plate was washed with T-PBS for three times.
3. […] Discard the liquid from the well, and the plate was washed with T-PBS for three times.
4. The horseradish peroxidase-labeled goat anti-mouse second antibody dilution (antibody diluted 1:2000 with BSA 5 mg/mL in T-PBS), 100 μL/well, and reacted in 37° C. shaker for 0.5 hours. Discard the liquid from the well, and the plate was washed with T-PBS for three times.
6. The reaction was quenched with 50 μL/well 2M […], and read at 490 nm using a tunable microplate reader VERSAmax.
The IC50 values were obtained by four-parameter regression analysis using the software supplied with the microplate reader.

EPHA6 = EPHA6 (Homo sapiens, UniProt Q9UF33); assay: Kinase profile screen: EPHA6; format: biochemical; details: 50 nM
From the text: (§1) Experimental Example 2: Study on the Selectivity of the Kinase Profile of the Compound Due to compound's potent inhibitory activity against AXL, we selected one of the compounds, DC621044, to screen 369 kinase profiles in order to investigate the compound's selectivity to the kinase profile.

c-MET = c-MET (Homo sapiens, UniProt P08581); assay: Kinase profile screen: c-MET; format: biochemical; details: 50 nM
From the text: as §1

AXL = AXL (Homo sapiens, UniProt P30530); assay: Kinase profile screen: AXL; format: biochemical; details: 50 nM
From the text: as §1

TRKA = TRKA (Homo sapiens, UniProt P04629); assay: Kinase profile screen: TRKA; format: biochemical; details: 50 nM
From the text: as §1

TYRO3/SKY = TYRO3/SKY (Homo sapiens, UniProt Q06418); assay: Kinase profile screen: TYRO3/SKY; format: biochemical; details: 50 nM
From the text: as §1

TRKC = TRKC (Homo sapiens, UniProt Q16288); assay: Kinase profile screen: TRKC; format: biochemical; details: 50 nM
From the text: as §1

IRR/INSRR = IRR/INSRR (Homo sapiens, UniProt P14616); assay: Kinase profile screen: IRR/INSRR; format: biochemical; details: 50 nM
From the text: as §1

FRK/PTK5 = FRK/PTK5 (Homo sapiens, UniProt P42685); assay: Kinase profile screen: FRK/PTK5; format: biochemical; details: 50 nM
From the text: as §1

FGR = FGR (Homo sapiens, UniProt P09769); assay: Kinase profile screen: FGR; format: biochemical; details: 50 nM
From the text: as §1

BLK = BLK (Homo sapiens, UniProt P51451); assay: Kinase profile screen: BLK; format: biochemical; details: 50 nM
From the text: as §1

[2] = target: receptor tyrosine kinase c-Met (Homo sapiens, UniProt P08581); assay: In vitro c-Met kinase inhibitory activity; format: biochemical; details: two values per compound
From the text: Experimental Example 3: Study of In Vitro c-Met Kinase Inhibitory Activity
Since the screening results of 369 kinase profiles of compound DC621044 has shown that the compound has a certain inhibitory activity on c-Met. We further screened some compounds for their inhibitory activity on c-Met kinase.

BaF3/TEL-AXL cells = assay: Proliferation of BaF3/TEL-AXL cells; format: cell-based
From the text: Experimental Example 4: Effect of the Compound on the Proliferation Effect of BaF3/TEL-AXL Cells
Based on the above-mentioned enzyme activity research results, we further explored the effect of the compound on cell proliferation mediated by receptor tyrosine kinase AXL.

BRK = BRK (Homo sapiens, UniProt Q13882); assay: Kinase profile screen: BRK; format: biochemical; details: 50 nM
From the text: as §1

LCK = LCK (Homo sapiens, UniProt P06239); assay: Kinase profile screen: LCK; format: biochemical; details: 50 nM
From the text: as §1

369 kinases = assay: Selectivity of the kinase profile (369 kinases); format: biochemical; details: 369 kinases screened
From the text: as §1

MLK2/MAP3K10 = MLK2/MAP3K10 (Homo sapiens, UniProt Q02779); assay: Kinase profile screen: MLK2/MAP3K10; format: biochemical; details: 50 nM
From the text: as §1

receptor tyrosine kinase c-Met, sequence (P08581 25-1390): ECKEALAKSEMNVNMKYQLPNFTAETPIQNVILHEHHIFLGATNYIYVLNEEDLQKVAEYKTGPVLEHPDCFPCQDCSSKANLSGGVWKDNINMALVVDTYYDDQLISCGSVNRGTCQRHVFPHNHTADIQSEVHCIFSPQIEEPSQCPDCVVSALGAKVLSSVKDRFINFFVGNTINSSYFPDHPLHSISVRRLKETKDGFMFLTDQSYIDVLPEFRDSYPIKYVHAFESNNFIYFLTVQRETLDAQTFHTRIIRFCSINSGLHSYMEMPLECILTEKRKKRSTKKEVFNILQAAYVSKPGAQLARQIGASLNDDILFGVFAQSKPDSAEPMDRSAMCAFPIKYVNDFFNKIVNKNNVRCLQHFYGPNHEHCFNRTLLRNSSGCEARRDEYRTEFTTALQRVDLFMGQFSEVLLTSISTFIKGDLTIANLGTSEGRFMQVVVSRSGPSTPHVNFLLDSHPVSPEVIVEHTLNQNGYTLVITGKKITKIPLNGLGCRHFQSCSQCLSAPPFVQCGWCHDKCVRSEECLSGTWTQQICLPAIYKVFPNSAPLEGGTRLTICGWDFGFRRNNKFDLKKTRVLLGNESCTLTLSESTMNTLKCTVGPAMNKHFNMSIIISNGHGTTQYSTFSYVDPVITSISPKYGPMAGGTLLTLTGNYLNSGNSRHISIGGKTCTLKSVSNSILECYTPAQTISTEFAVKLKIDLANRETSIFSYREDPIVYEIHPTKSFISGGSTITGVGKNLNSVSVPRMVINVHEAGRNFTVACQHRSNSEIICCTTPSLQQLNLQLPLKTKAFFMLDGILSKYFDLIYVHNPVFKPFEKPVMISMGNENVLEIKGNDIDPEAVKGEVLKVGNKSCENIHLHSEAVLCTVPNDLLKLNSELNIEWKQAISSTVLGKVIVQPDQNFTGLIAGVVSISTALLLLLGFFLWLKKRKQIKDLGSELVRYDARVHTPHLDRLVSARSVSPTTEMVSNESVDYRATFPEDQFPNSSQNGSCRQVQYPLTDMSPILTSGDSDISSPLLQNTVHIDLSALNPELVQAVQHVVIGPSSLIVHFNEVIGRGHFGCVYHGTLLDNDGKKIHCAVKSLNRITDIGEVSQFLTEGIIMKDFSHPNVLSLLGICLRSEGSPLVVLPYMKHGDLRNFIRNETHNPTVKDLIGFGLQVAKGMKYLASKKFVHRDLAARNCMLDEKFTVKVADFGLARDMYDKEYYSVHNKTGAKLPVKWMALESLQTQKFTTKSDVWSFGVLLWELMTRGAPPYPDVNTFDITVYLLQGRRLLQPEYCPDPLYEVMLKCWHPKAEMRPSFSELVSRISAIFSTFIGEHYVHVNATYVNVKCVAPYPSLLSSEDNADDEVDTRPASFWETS
LCK, sequence (P06239 whole entry, species assumed): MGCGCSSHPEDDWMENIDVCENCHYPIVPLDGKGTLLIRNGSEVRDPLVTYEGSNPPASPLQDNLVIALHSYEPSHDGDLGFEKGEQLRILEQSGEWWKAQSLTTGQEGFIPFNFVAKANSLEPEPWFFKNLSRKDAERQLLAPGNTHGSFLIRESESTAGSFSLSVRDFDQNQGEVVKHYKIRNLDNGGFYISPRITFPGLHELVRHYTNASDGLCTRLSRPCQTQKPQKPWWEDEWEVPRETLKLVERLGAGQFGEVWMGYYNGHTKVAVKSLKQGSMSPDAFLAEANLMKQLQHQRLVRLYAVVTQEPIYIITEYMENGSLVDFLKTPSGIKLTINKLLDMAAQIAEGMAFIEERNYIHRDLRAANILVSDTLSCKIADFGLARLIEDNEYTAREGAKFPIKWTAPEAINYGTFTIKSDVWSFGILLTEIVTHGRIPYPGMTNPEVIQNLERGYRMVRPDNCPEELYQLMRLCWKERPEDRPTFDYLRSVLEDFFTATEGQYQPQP
FGR, sequence (P09769 whole entry, species assumed): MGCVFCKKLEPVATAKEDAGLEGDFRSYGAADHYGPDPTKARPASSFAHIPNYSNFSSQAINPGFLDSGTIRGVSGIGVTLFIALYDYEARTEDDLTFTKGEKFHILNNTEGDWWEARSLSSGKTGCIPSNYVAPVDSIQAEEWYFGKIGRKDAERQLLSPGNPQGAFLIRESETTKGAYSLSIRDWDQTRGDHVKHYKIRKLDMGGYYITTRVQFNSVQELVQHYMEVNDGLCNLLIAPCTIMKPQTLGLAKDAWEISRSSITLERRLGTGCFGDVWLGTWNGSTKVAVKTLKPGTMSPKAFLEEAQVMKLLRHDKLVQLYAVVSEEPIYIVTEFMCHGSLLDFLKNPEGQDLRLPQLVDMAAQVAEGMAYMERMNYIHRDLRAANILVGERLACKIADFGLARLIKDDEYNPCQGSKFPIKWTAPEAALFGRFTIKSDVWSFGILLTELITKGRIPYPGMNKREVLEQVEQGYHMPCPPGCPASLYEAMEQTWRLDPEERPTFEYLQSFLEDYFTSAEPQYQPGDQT
TRKA, sequence (P04629 33-796, species assumed): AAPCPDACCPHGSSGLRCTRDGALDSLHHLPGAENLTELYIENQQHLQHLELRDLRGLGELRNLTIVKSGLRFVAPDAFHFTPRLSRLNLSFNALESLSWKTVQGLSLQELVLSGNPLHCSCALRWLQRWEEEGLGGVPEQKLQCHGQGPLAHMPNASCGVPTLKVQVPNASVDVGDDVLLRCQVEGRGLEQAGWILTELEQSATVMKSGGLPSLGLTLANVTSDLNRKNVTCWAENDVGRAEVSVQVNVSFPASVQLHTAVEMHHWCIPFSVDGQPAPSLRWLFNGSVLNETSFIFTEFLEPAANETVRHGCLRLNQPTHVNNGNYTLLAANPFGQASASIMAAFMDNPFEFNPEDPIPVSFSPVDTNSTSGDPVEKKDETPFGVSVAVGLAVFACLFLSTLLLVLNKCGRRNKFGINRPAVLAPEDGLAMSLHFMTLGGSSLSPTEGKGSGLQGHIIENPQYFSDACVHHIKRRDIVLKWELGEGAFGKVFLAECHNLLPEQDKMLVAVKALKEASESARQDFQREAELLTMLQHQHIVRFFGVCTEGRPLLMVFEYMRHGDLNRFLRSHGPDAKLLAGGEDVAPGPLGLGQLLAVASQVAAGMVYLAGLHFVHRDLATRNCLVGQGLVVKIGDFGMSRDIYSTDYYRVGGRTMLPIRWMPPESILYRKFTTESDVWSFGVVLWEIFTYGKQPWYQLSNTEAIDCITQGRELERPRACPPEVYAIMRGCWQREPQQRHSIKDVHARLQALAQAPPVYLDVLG
c-MET, sequence (P08581 25-1390): as the sequence (P08581 25-1390) above
BRK, sequence (Q13882 whole entry, species assumed): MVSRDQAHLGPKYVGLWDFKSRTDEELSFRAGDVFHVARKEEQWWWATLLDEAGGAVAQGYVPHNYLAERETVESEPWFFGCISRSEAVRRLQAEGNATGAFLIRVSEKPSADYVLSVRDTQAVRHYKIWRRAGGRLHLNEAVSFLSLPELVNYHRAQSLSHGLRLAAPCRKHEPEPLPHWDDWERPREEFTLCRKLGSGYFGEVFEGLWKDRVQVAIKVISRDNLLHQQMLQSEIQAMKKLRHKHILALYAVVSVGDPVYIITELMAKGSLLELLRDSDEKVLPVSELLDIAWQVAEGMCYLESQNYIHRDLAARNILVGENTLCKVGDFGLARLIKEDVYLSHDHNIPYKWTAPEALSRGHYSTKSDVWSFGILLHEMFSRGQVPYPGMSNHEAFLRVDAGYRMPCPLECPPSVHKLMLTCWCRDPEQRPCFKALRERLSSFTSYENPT

IC50 [1]: 7.6 ± 0.3 nM
inhibition at 0.001 µM ([1]; 1 nM, read-out: AXL activity Inhibitory rate(%)): 20.7%
inhibition at 0.01 µM ([1]; 10 nM, read-out: AXL activity Inhibitory rate(%)): 61.2%
inhibition at 0.1 µM ([1]; 100 nM, read-out: AXL activity Inhibitory rate(%)): 80.7%
inhibition at 0.05 µM (EPHA6; the first time): 57.3%
inhibition at 0.05 µM (EPHA6; the second time): 57.8%
inhibition at 0.05 µM (c-MET; the first time): 98.6%
inhibition at 0.05 µM (c-MET; the second time): 99%
inhibition at 0.05 µM (AXL; the first time): 94.6%
inhibition at 0.05 µM (AXL; the second time): 95.2%
inhibition at 0.05 µM (TRKA; the first time): 59.2%
inhibition at 0.05 µM (TRKA; the second time): 60.3%
inhibition at 0.05 µM (TYRO3/SKY; the first time): 41%
inhibition at 0.05 µM (TYRO3/SKY; the second time): 41.2%
inhibition at 0.05 µM (TRKC; the first time): 23.8%
inhibition at 0.05 µM (TRKC; the second time): 24.1%
inhibition at 0.05 µM (IRR/INSRR; the first time): 25.8%
inhibition at 0.05 µM (IRR/INSRR; the second time): 28.3%
inhibition at 0.05 µM (FRK/PTK5; the first time): 17.1%
inhibition at 0.05 µM (FRK/PTK5; the second time): 17.7%
inhibition at 0.05 µM (FGR; the first time): 41.2%
inhibition at 0.05 µM (FGR; the second time): 41.2%
inhibition at 0.05 µM (BLK; the first time): 29.5%
inhibition at 0.05 µM (BLK; the second time): 29.9%
c-Met Inhibitory rate (%) ([2]; 1 nM, 0.001 µM): 30.6% and 52.3%
c-Met Inhibitory rate (%) ([2]; 10 nM, 0.01 µM): 75.1%
inhibition at 0.01 µM ([2]; 10 nM, read-out: c-Met Inhibitory rate (%)): 69.4%
c-Met Inhibitory rate (%) ([2]; 100 nM, 0.1 µM): 100%
inhibition at 0.1 µM ([2]; 100 nM, read-out: c-Met Inhibitory rate (%)): 97.1%
inhibition at 0.05 µM (BRK; the first time): 18.9%
inhibition at 0.05 µM (BRK; the second time): 19.4%
inhibition at 0.05 µM (LCK; the first time): 52.8%
inhibition at 0.05 µM (LCK; the second time): 53.1%
kinase profile selectivity (in words) (369 kinases): good selectivity for AXL kinase
inhibition at 0.05 µM (MLK2/MAP3K10; the first time): 22.4%
inhibition at 0.05 µM (MLK2/MAP3K10; the second time): 23.9%
SMILES: COCCOc1cc2ncnc(Oc3ccc(NC(=O)c4c5n(n(-c6ccc(F)cc6)c4=O)CCCC5)cc3F)c2cc1OCCOC [DC621044, N-(4-((6,7-bis(2-methoxyethoxy)quinazolin-4-yl)oxy)-3-fluorophenyl)-1-(4-fluorophenyl)-2-oxo-1,2,4,5,6,7-hexahydropyrazolo[1,5-a]pyridine-3-formamide]
BaF3/TEL-AXL proliferation Inhibitory rate (%) (BaF3/TEL-AXL cells; 1 nM, two values per compound, 0.001 µM): 64.2%
BaF3/TEL-AXL proliferation Inhibitory rate (%) (BaF3/TEL-AXL cells; 10 nM, two values per compound, 0.01 µM): 75.9%
BaF3/TEL-AXL proliferation Inhibitory rate (%) (BaF3/TEL-AXL cells; 100 nM, two values per compound, 0.1 µM): 88.2%
inhibition at 0.001 µM (BaF3/TEL-AXL cells; BaF3/TEL-AXL, 1 nM, two values per compound, read-out: BaF3/TEL-AXL proliferation Inhibitory rate (%)): 78.9%
inhibition at 0.01 µM (BaF3/TEL-AXL cells; BaF3/TEL-AXL, 10 nM, two values per compound, read-out: BaF3/TEL-AXL proliferation Inhibitory rate (%)): 79.8%
inhibition at 0.1 µM (BaF3/TEL-AXL cells; BaF3/TEL-AXL, 100 nM, two values per compound, read-out: BaF3/TEL-AXL proliferation Inhibitory rate (%)): 85.9%
inhibition at 0.001 µM (BaF3/TEL-AXL cells; BaF3/TEL-AXL, concentration of 1 nM, read-out: inhibited the proliferation of BaF3/TEL-AXL cells): > 70%
